According to ChEMBL document CHEMBL4665541, “Search for new therapeutic options for the uncommon pathogen Mycobacterium chimaera: an open drug discovery approach” (Lancet Microbe, 2021):

Columns and labels:
Assay type in all cases: functional, organism-based
Parameters in all cases: conc 20 uM
[1] = system: Mycobacterium tuberculosis; assay: (§1) Inhibition of mycobacterial growth using the resazurin microtitre cell viability assay (REMA), compounds at final concentration of 20 µM (2% v/v DMSO). Hits were classed as compounds that inhibited bacterial growth by 70% or more compared to drug-free controls.; details: H37Rv
[2] = system: Mycobacteroides abscessus; assay: as §1; details: ATCC19977
[3] = system: Mycobacterium intracellulare subsp. chimaera; assay: as §1; details: NCTC13781

Substance: MMV020320
- Survival [1]: 42.2%
- Survival [2]: 113%
- Survival [3]: 98.9%

Substance: MMV676050
- Survival [1]: 84.8%
- Survival [2]: 110%
- Survival [3]: 95.8%

Substance: MMV016136
- Survival [1]: 107%
- Survival [2]: 118%
- Survival [3]: 108%

Substance: MMV688471
- Survival [1]: 87.8%
- Survival [2]: 109%
- Survival [3]: 98.6%

Substance: MMV688543
- Survival [1]: 89%
- Survival [2]: 101%
- Survival [3]: 97.2%

Substance: MMV676162
- Survival [1]: 93.3%
- Survival [2]: 117%
- Survival [3]: 112%

Substance: MMV007471
- Survival [1]: 89.1%
- Survival [2]: 119%
- Survival [3]: 101%

Substance: MMV023227
- Survival [1]: 85.3%
- Survival [2]: 106%
- Survival [3]: 87.2%

Substance: MMV637229
- Survival [1]: 87%
- Survival [2]: 112%
- Survival [3]: 96.4%

Substance: MMV010764
- Survival [1]: 88.8%
- Survival [2]: 101%
- Survival [3]: 94.1%

Substance: MMV021013
- Survival [1]: 100%
- Survival [2]: 108%
- Survival [3]: 88%

Substance: MMV688350
- Survival [1]: 105%
- Survival [2]: 102%
- Survival [3]: 92.5%

Substance: MMV026468
- Survival [1]: 95.9%
- Survival [2]: 105%
- Survival [3]: 96.1%

Substance: MMV000907
- Survival [1]: 97.1%
- Survival [2]: 111%
- Survival [3]: 98.3%

Substance: MMV202458
- Survival [1]: 132%
- Survival [2]: 99.9%
- Survival [3]: 98.1%

Substance: MMV688372
- Survival [1]: 88.8%
- Survival [2]: 104%
- Survival [3]: 112%

Substance: MMV595321
- Survival [1]: 25.4%
- Survival [2]: 117%
- Survival [3]: 98.2%

Substance: MMV024829
- Survival [1]: 88.9%
- Survival [2]: 119%
- Survival [3]: 103%

Substance: MMV688853
- Survival [1]: 94.5%
- Survival [2]: 111%
- Survival [3]: 102%

Substance: MMV019189
- Survival [1]: 77%
- Survival [2]: 97.2%
- Survival [3]: 97.4%

Substance: MMV688330
- Survival [1]: 99.6%
- Survival [2]: 99.9%
- Survival [3]: 103%

Substance: MMV688313
- Survival [1]: 102%
- Survival [2]: 94.8%
- Survival [3]: 104%

Substance: MMV020388
- Survival [1]: 88.5%
- Survival [2]: 113%
- Survival [3]: 102%

Substance: MMV001493
- Survival [1]: 93.6%
- Survival [2]: 128%
- Survival [3]: 106%

Substance: MMV689243
- Survival [1]: 82.6%
- Survival [2]: 113%
- Survival [3]: 110%

Substance: MMV675998
- Survival [1]: 89.7%
- Survival [2]: 117%
- Survival [3]: 94.7%

Substance: MMV652003
- Survival [1]: 112%
- Survival [2]: 109%
- Survival [3]: 97.2%

Substance: MMV687762
- Survival [1]: 95.8%
- Survival [2]: 112%
- Survival [3]: 101%

Substance: MMV021057
- Survival [1]: 96.6%
- Survival [2]: 126%
- Survival [3]: 110%

Substance: MMV202553
- Survival [1]: 83.4%
- Survival [2]: 109%
- Survival [3]: 100%

Substance: MMV023860
- Survival [1]: 84.6%
- Survival [2]: 117%
- Survival [3]: 90.3%

Substance: MMV024035
- Survival [1]: 85.9%
- Survival [2]: 117%
- Survival [3]: 98.3%

Substance: MMV687172
- Survival [1]: 129%
- Survival [2]: 98.3%
- Survival [3]: 101%

Substance: MMV000011
- Survival [1]: 22.4%
- Survival [2]: 118%
- Survival [3]: 10.1%

Substance: MMV019838
- Survival [1]: 84.2%
- Survival [2]: 124%
- Survival [3]: 81.2%

Substance: MMV687248
- Survival [1]: 31.8%
- Survival [2]: 110%
- Survival [3]: 110%

Substance: MMV688283
- Survival [1]: 89.4%
- Survival [2]: 116%
- Survival [3]: 112%

Substance: MMV688955
- Survival [1]: 103%
- Survival [2]: 89.9%
- Survival [3]: 94.2%

Substance: MMV688942
- Survival [1]: 85.1%
- Survival [2]: 112%
- Survival [3]: 98.6%

Substance: MMV676605
- Survival [1]: 99.5%
- Survival [2]: 122%
- Survival [3]: 110%

Substance: MMV020081
- Survival [1]: 89.4%
- Survival [2]: 118%
- Survival [3]: 87.7%

Substance: MMV153413
- Survival [1]: 26.5%
- Survival [2]: 111%
- Survival [3]: 9.37%

Substance: MMV023370
- Survival [1]: 102%
- Survival [2]: 109%
- Survival [3]: 107%

Substance: MMV019551
- Survival [1]: 77.8%
- Survival [2]: 103%
- Survival [3]: 90.1%

Substance: MMV085230
- Survival [1]: 93.7%
- Survival [2]: 118%
- Survival [3]: 111%

Substance: MMV020136
- Survival [1]: 88.7%
- Survival [2]: 129%
- Survival [3]: 88.5%

Substance: MMV085210
- Survival [1]: 82.8%
- Survival [2]: 115%
- Survival [3]: 88.2%

Substance: MMV1028806
- Survival [1]: 26.7%
- Survival [2]: 116%
- Survival [3]: 100%

Substance: MMV676186
- Survival [1]: 94.5%
- Survival [2]: 105%
- Survival [3]: 98.8%

Substance: MMV675994
- Survival [1]: 81.9%
- Survival [2]: 105%
- Survival [3]: 108%

Substance: MMV676602
- Survival [1]: 105%
- Survival [2]: 95.5%
- Survival [3]: 111%

Substance: MMV668727
- Survival [1]: 100%
- Survival [2]: 102%
- Survival [3]: 96.8%

Substance: MMV688361
- Survival [1]: 92.9%
- Survival [2]: 116%
- Survival [3]: 88.9%

Substance: MMV020391
- Survival [1]: 95.4%
- Survival [2]: 108%
- Survival [3]: 91.8%

Substance: MMV020982
- Survival [1]: 84.3%
- Survival [2]: 124%
- Survival [3]: 103%

Substance: MMV687188
- Survival [1]: 43.4%
- Survival [2]: 110%
- Survival [3]: 73.5%

Substance: MMV002816
- Survival [1]: 86.4%
- Survival [2]: 112%
- Survival [3]: 102%

Substance: MMV560185
- Survival [1]: 80.8%
- Survival [2]: 116%
- Survival [3]: 89.9%

Substance: MMV024101
- Survival [1]: 99.6%
- Survival [2]: 95.8%
- Survival [3]: 100%

Substance: MMV688179
- Survival [1]: 1.64%
- Survival [2]: 17.6%
- Survival [3]: 2.34%

Substance: MMV687800
- Survival [1]: 6.34%
- Survival [2]: 109%
- Survival [3]: 6.51%

Substance: MMV676401
- Survival [1]: 95.8%
- Survival [2]: 113%
- Survival [3]: 88%

Substance: MMV676597
- Survival [1]: 98%
- Survival [2]: 113%
- Survival [3]: 99.5%

Substance: MMV687775
- Survival [1]: 91%
- Survival [2]: 122%
- Survival [3]: 98.2%

Substance: MMV007625
- Survival [1]: 90.4%
- Survival [2]: 123%
- Survival [3]: 104%

Substance: MMV020289
- Survival [1]: 86.3%
- Survival [2]: 113%
- Survival [3]: 103%

Substance: MMV553002
- Survival [1]: 34.8%
- Survival [2]: 113%
- Survival [3]: 66.4%

Substance: MMV001561
- Survival [1]: 91.3%
- Survival [2]: 103%
- Survival [3]: 103%

Substance: MMV688550
- Survival [1]: 95.8%
- Survival [2]: 105%
- Survival [3]: 99%

Substance: MMV689709
- Survival [1]: 97.3%
- Survival [2]: 114%
- Survival [3]: 91.7%

Substance: MMV687706
- Survival [1]: 99.8%
- Survival [2]: 108%
- Survival [3]: 92.7%

Substance: MMV028694
- Survival [1]: 88.7%
- Survival [2]: 113%
- Survival [3]: 91.4%

Substance: MMV688773
- Survival [1]: 82.8%
- Survival [2]: 122%
- Survival [3]: 94.7%

Substance: MMV688771
- Survival [1]: 91.4%
- Survival [2]: 98.2%
- Survival [3]: 91.7%

Substance: MMV023949
- Survival [1]: 92.7%
- Survival [2]: 116%
- Survival [3]: 90.5%

Substance: MMV688844
- Survival [1]: 15.4%
- Survival [2]: 11.7%
- Survival [3]: 4.25%

Substance: MMV676384
- Survival [1]: 54.5%
- Survival [2]: 109%
- Survival [3]: 101%

Substance: MMV611037
- Survival [1]: 92.7%
- Survival [2]: 106%
- Survival [3]: 105%

Substance: MMV393995
- Survival [1]: 46.2%
- Survival [2]: 93.9%
- Survival [3]: 95.8%

Substance: MMV676445
- Survival [1]: 30%
- Survival [2]: 111%
- Survival [3]: 74.2%
